Experimental findings from PubChem BioAssay (NCI) are described below.

Several values for one entry are separate records, joined by “and”; a condition that tells them apart may be missing. Equal entries are not always repeated.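 Five compound concentrations were applied to cells in 96-well plates for 48 hours; endpoints were derived by simple linear interpolation of the resulting dose-response curve. The concentration for 50% growth inhibition is given as GI50. TGI marks complete inhibition of growth.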

What all share (experiment): inhibition of tumour cell growth, NCI panel, 48 h
In experiment [1] the test system is CAKI-1 renal.
Experiment [2] has as its system HCT-15 colon.
In experiment [3] the test system is NCI-H226 lung.
For experiment [4], the system named is DLD-1 colon.
Experiment [5] relates to UO-31 renal.
The subject of experiment [6] is HCT-116 colon.
In experiment [7] the test system is M19-MEL melanoma.
For experiment [8], the system named is SF-295 CNS.
Experiment [9] has as its system HT29 colon.
Experiment [10] relates to NCI/ADR-RES ovarian.

As for `COC(=O)C1C(=O)CC2CCCCC21` (centres undefined), the TGI in [1], in [2], in experiment [3], in [4], in [5] and in experiment [6] was above 100 µM in each case. For the same compound, the TGI in experiment [7] was above 100 µM.
As to `Cc1ccc(Oc2ccccc2N)cc1`, the TGI in experiment [2] is above 100 µM; in experiment [8] it was above 100 µM; in experiment [4], above 100 µM; in experiment [5], 44.9 µM; in experiment [6] it was 36 µM; in [9] it was above 100 µM.
Regarding `Cl/C(N=Nc1ccccc1)=N/Nc1ccccc1`, the TGI in experiment [1], in [8], in experiment [3], in [6], in [9] and in experiment [7] was above 100 µM each time.
As for `Cc1c2c(cc3c1C(=O)C(=O)C1=C3OC[C@@H]1C)C(C)(C)CCC2`, the TGI in experiment [1] is above 100 µM; in experiment [2], 27.6 µM; in experiment [8] it was 27.8 µM; in [4], 59.5 µM; in experiment [5], 46.1 µM; in experiment [6] it was 26.7 µM. Also, the TGI in experiment [9] was determined as 32.5 µM; in experiment [7] it was 6.68 µM.
In the case of `COc1ccc(OC(C(=O)O)C(C)C)c2c1CCCC2=O` (centres undefined), the TGI in experiment [1], in experiment [2], in experiment [8], in experiment [4], in experiment [5] and in experiment [6] was above 100 µM throughout. Further, the TGI in experiment [9] and in experiment [7] was above 100 µM throughout.
Take `O=C1OC(c2ccccc2)=N/C1=C\c1ccc(Oc2ccc(Cl)c(Cl)c2)cc1`: the TGI in experiment [2] is above 100 µM; in experiment [8], above 100 µM; in experiment [4], above 100 µM; in experiment [5], 78.8 µM; in experiment [6], above 100 µM; in experiment [9], above 100 µM. In experiment [7], this compound registered a TGI above 100 µM.
Turning to `C[Si](C)(C)C(CCCCSc1ccccc1)(Sc1ccccc1)Sc1ccccc1`, the TGI in [1], in experiment [2], in [8], in experiment [4], in experiment [5] and in [6] was above 100 µM in each case. Moreover, the TGI in [7] was above 100 µM.
On to `O=C(O)c1cc(=O)c2c([nH]c3ccccc32)s1`, for which the TGI in experiment [1], in experiment [2], in experiment [8], in [4], in experiment [5] and in experiment [7] was above 100 µM throughout.
As for `Cc1cc(NC(=O)C2C3C=CC(O3)C2C(=O)O)no1` (centres undefined), the TGI was 37.4 µM in experiment [2]; above 100 µM in [8]; above 100 µM in [3]; 49.2 µM in experiment [4]; above 100 µM in experiment [5]; 32 µM in experiment [6]. The TGI was above 100 µM in experiment [9] and 77.7 µM in [7].
For `C#CCNC(=O)ON1C(=O)CCC1=O`, the TGI in experiment [2], in [8], in experiment [4], in [5], in experiment [6] and in experiment [9] was above 100 µM in each case. Further, the TGI in experiment [7] was above 100 µM.
On to `Cc1cc(C)c2c(n1)sc1c(N)ncnc12`, for which the GI50 is 15.8 µM in [1]; above 25 µM in experiment [2]; above 25 µM in experiment [8]; 11.9 µM in [3]; above 25 µM in [10]; 12.9 µM in experiment [5]. In addition, the GI50 in experiment [6] was 24.4 µM; in experiment [9], 16.2 µM. Besides, the TGI in [1], in experiment [2], in experiment [8], in experiment [3], in experiment [10] and in [5] was above 25 µM throughout. Further, the TGI in [6] and in experiment [9] was above 25 µM each time.
Regarding `Cc1nc2ccc(Br)cc2c(=O)n1-c1ccc(NC2OCC(O)C(O)C2O)cc1` (centres undefined), the GI50 in [1] was 20.3 µM and > 100 µM; in [2], 19.7 µM and > 100 µM; in experiment [10] it was 41.9 µM and > 100 µM; in [5], 35.8 µM and > 100 µM; in experiment [6], 17.7 µM and 79.2 µM; in [9], 20.7 µM and > 100 µM. For the same compound, the TGI in [1] was 44.1 µM and > 100 µM; in experiment [2], 43.6 µM and > 100 µM; in experiment [8], above 100 µM; in experiment [3], above 100 µM; in experiment [10], above 100 µM; in [5], above 100 µM. Also, the TGI in experiment [6] is 53.7 µM and > 100 µM; in [9], 48.7 µM and > 100 µM.
Turning to `CC1(c2cc3c(cc2Br)OCO3)SCCCS1`, the TGI was above 100 µM in experiment [2]; above 100 µM in experiment [8]; above 100 µM in [3]; above 100 µM in experiment [4]; 85.1 µM in experiment [5]; above 100 µM in [6]. For the same compound, the TGI in [9] and in [7] was above 100 µM in each case.
For the compound `O=C(Nc1ccc(F)cc1F)c1cc(Cl)ccc1O`, the GI50 is 1.31 µM in experiment [1]; 1.54 µM in [2]; 1.56 µM in experiment [8]; 1.29 µM in [3]; 2.52 µM in experiment [10]; 1.15 µM in [5]. Further, the GI50 in [6] is 1.23 µM; in experiment [9], 3.62 µM. The TGI was 5.51 µM in experiment [1]; 18 µM in [2]; 3.16 µM in experiment [8]; 5.73 µM in experiment [3]; 13.3 µM in experiment [10]; 6.18 µM in [5]. Besides, the TGI in experiment [6] is 3.31 µM; in [9], above 100 µM.
For the compound `Cn1cccc1-c1cc(-c2ccccc2)[nH]c(=O)c1C#N`, the GI50 in experiment [1], in [2], in experiment [8], in [3], in experiment [10] and in [5] was above 100 µM throughout. In addition, the GI50 in [6] and in experiment [9] was above 100 µM each time. The TGI in experiment [1], in experiment [2], in [8], in experiment [3], in experiment [10] and in experiment [5] was above 100 µM throughout. Besides, the TGI in [6] and in experiment [9] was above 100 µM throughout.
On to `CCCCCN(CCCCC)CC(O)c1cc(Cl)ccc1OC` (centres undefined), for which the GI50 was 2.81 µM in experiment [1]; 6.32 µM in experiment [2]; 1.38 µM in experiment [8]; 9.79 µM in experiment [3]; 9.26 µM in experiment [10]; 3.37 µM in [5]. In addition, the values for the GI50 in [6] and in experiment [9] were 2.49 µM and 0.683 µM, respectively. In addition, the TGI in [1] turned out to be 16.6 µM; in experiment [2] it was 21.5 µM; in [8], 12.6 µM; in experiment [3], 23.6 µM; in experiment [10], 25.9 µM; in experiment [5], 15.5 µM. Moreover, the figures for the TGI in experiment [6] and in experiment [9] were 12.6 µM and 12 µM, respectively.
As to `CC1CN(S(=O)(=O)c2oc(-c3ccc(Cl)cc3)nc2C#N)CC(C)O1` (centres undefined), the GI50 was 1.56 µM in [1]; 1.41 µM in [2]; 13.8 µM in experiment [8]; 18.1 µM in [3]; 10.7 µM in experiment [10]; 1.56 µM in experiment [5]. For the same compound, the values for the GI50 in experiment [6] and in experiment [9] were 1.59 µM and 2.06 µM, respectively. In addition, the TGI turned out to be 2.93 µM in experiment [1]; 3.04 µM in [2]; 27.2 µM in experiment [8]; 39.9 µM in experiment [3]; 65.5 µM in experiment [10]; 2.91 µM in [5]. The TGI was 3.13 µM in experiment [6] and 4.11 µM in experiment [9].
Consider `Cc1ncc(C(=O)Nc2ccc(CN3CCN(C)CC3)c(C(F)(F)F)c2)cc1C#Cc1ccc(N)nc1`, for which the GI50 was 0.104 µM in experiment [1]; 0.224 µM in experiment [2]; 0.908 µM in experiment [8]; 0.206 µM in experiment [3]; 1.03 µM in experiment [10]; 0.161 µM in experiment [5]. Moreover, the results for the GI50 in [6] and in [9] were 0.213 µM and 0.129 µM, respectively. Further, the TGI in experiment [1] stood at 0.533 µM; in [2], 3.7 µM; in experiment [8], 4.07 µM; in [3], 1.66 µM; in [10], 5.64 µM; in experiment [5] it was 0.793 µM. In addition, the TGI in experiment [6] turned out to be 1.64 µM; in [9] it was 1.16 µM.
With `O=c1cc(-c2ccc(O)cc2)oc2cc(O[C@@H]3O[C@H](CO)[C@@H](O)[C@H](O)[C@H]3O)cc(O)c12`, the TGI in experiment [1] is 0.718 µM; in experiment [2] it was above 100 µM; in experiment [8], above 100 µM; in experiment [3] it was above 100 µM; in experiment [10], above 100 µM; in experiment [5], above 100 µM. The TGI in experiment [6] and in experiment [9] was above 100 µM each time.
On to `Cc1cc(Cl)ccc1OCC(=O)Nc1nc(N)nc(N)n1`, for which the TGI in experiment [1], in experiment [2], in [8], in [3], in experiment [10] and in [5] was above 100 µM each time. In addition, the TGI in experiment [6] and in experiment [9] was above 100 µM in each case.
